Read-outs that look alike come from different tables or passages of the source.
Molecular target: EBI2 (Homo sapiens, UniProt P32249)
Assay: Cell-based luminescent assay (EBI2 modulation)
In short: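 Cells plated overnight at 37° C, then exposed to compound at 4-5 uM final with 80 nM 7a,25-OHC agonist for 60 min at 37° C. Luminescence read after 60 min detection at 25° C in the dark; values normalized to neutral and stimulator controls and plate-pattern corrected.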

[1] = cell-based luminescence, 7a,25-OHC final assay concentration 80 nM, 60 minutes incubation, read-out: IC50

EBI2, sequence (P32249 whole entry): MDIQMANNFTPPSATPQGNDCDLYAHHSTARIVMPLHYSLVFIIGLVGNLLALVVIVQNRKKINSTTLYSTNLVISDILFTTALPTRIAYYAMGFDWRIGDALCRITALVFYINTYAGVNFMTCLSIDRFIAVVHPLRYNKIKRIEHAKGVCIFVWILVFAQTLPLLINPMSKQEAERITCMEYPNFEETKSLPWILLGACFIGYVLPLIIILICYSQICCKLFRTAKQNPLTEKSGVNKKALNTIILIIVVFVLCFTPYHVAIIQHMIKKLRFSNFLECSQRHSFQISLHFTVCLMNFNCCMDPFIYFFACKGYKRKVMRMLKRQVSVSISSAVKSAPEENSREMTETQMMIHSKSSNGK

IC50 [1] | Molecule | IC50
100 to 500 nM | Cc1nc2ccc(C(=O)N3CCN(C(c4ccccc4)c4ccccc4)CC3)cc2[nH]1 [Compound C465, 4-(diphenylmethyl)piperazinyl 2-methylbenzimidazol-5-yl ketone] | –
100 to 500 nM | O=C(c1cc2ccccc2cn1)N1CCN(C(c2ccccc2)c2ccccc2)CC1 [Compound C468, 4-(diphenylmethyl)piperazinyl 3-isoquinolyl ketone] | –
100 to 500 nM | O=C(C#Cc1ccccc1C(F)(F)F)N1CCN(Cc2ccc(Cl)cc2)CC1 [Compound C469, 1-{4-[(4-chlorophenyl)methyl]piperazinyl}-3-[2-(trifluoromethyl)phenyl]prop-2-yn-1-one] | –
100 to 500 nM | O=C(c1cc2cc(Cl)ccc2[nH]1)N1CCN(c2ccc(F)cc2)CC1 [Compound C470, 5-chloroindol-2-yl 4-(4-fluorophenyl)piperazinyl ketone] | –
100 to 500 nM | COc1ccc(CN2CCN(C(=O)C#Cc3cccc(Cl)c3)CC2)cc1 [Compound C473, 3-(3-chlorophenyl)-1-{4-[(4-methoxyphenyl)methyl]piperazinyl}prop-2-yn-1-one] | –
100 to 500 nM | O=C(Nc1cccc(I)c1)N1CCN(C(=O)c2cc3cc(Cl)ccc3[nH]2)CC1 [Compound C474, {4-[(5-chloroindol-2-yl)carbonyl]piperazinyl}-N-(3-iodophenyl)carboxamide] | –
100 to 500 nM | O=C(C#Cc1ccccc1C(F)(F)F)N1CCN(Cc2ccc(C(F)(F)F)cc2)CC1 [Compound C475, 3-[2-(trifluoromethyl)phenyl]-1-(4-{[4-(trifluoromethyl)phenyl]methyl}piperazinyl)prop-2-yn-1-one] | –
100 to 500 nM | O=C(c1cc2cc(Cl)ccc2[nH]1)N1CCN(c2ccccc2F)CC1 [Compound C476, 5-chloroindol-2-yl 4-(2-fluorophenyl)piperazinyl ketone] | –
100 to 500 nM | O=C(Nc1ccc(F)cc1F)N1CCN(C(=O)c2cc3cc(Cl)ccc3[nH]2)CC1 [Compound C477, N-(2,4-difluorophenyl){4-[(5-chloroindol-2-yl)carbonyl]piperazinyl}carboxamide] | –
100 to 500 nM | O=C(c1cc2ccccn2n1)N1CCN(C(c2ccccc2)c2ccccc2)CC1 [Compound C478, 4-(diphenylmethyl)piperazinyl 8-hydropyrazolo[1,5-a]pyridin-2-yl ketone] | –
100 to 500 nM | O=C(C=Cc1ccc2c(c1)OCO2)N1CCN(C(=O)c2ccc(F)cc2C(F)(F)F)CC1 [Compound C479, 3-(2H-benzo[3,4-d]1,3-dioxolan-5-yl)-1-(4-{[4-fluoro-2-(trifluoromethyl)phenyl]carbonyl}piperazinyl)prop-2-en-1-one] | –
100 to 500 nM | Cc1ccccc1/C=C/C(=O)N1CCN(S(=O)(=O)c2ccc(C(C)(C)C)cc2)CC1 [Compound C480, (2E)-1-(4-{[4-(tert-butyl)phenyl]sulfonyl}piperazinyl)-3-(2-methylphenyl)prop-2-en-1-one] | –
– | O=C(/C=C/c1ccc(Br)cc1)N1CCN(Cc2ccc(Cl)cc2)CC1 [Compound D1, (E)-3-(4-bromophenyl)-1-(4-(4-chlorobenzyl)piperazin-1-yl) prop-2-en-1-one] | < 100 nM
< 100 nM | O=C(/C=C/c1ccc(Cl)c(Cl)c1)N1CCN(Cc2ccc(C(F)(F)F)cc2)CC1 [Compound D3, (2E)-3-(3,4-dichlorophenyl)-1-(4-{[4-(trifluoromethyl)phenyl]methyl}piperazinyl)prop-2-en-1-one] | –
< 100 nM | Cc1cc(C)c(S(=O)(=O)N2CCN(C(=O)/C=C/c3ccc(Br)cc3)CC2)c(C)c1 [Compound E1, (2E)-3-(4-bromophenyl)-1-{4-[(2,4,6-trimethylphenyl)sulfonyl]piperazinyl} prop-2-en-1-one] | –
< 100 nM | O=C(/C=C/c1ccc(F)cc1)N1CCN(S(=O)(=O)c2ccc(Br)cc2)CC1 [Compound E2, (2E)-1-{4-[(4-bromophenyl)sulfonyl]piperazinyl}-3-(4-fluorophenyl) prop-2-en-1-one] | –
< 100 nM | O=C(/C=C/c1ccc(F)cc1)N1CCN(S(=O)(=O)CCc2ccccc2)CC1 [Compound E3, (2E)-3-(4-fluorophenyl)-1-{4-[(2-phenylethyl)sulfonyl]piperazinyl}prop-2-en-1-one] | –
< 100 nM | COc1ccc(/C=C/C(=O)N2CCN(S(=O)(=O)c3ccccc3)CC2)cc1 [Compound E4, (2E)-3-(4-methoxyphenyl)-1-[4-(phenylsulfonyl)piperazinyl]prop-2-en-1-one] | –
< 100 nM | CC(=O)c1ccc(S(=O)(=O)N2CCN(C(=O)/C=C/c3ccc(Br)cc3F)CC2)cc1 [Compound E5, 4-({4-[(2E)-3-(4-bromo-2-fluorophenyl)prop-2-enoyl]piperazinyl}sulfonyl)-1-acetylbenzene] | –
< 100 nM | O=C(/C=C/c1ccc(Br)cc1)N1CCC(CNCc2ccc(C(F)(F)F)cc2)CC1 [Compound F2] | –
< 100 nM | O=C(NCC1CCN(C(=O)/C=C/c2ccc(Br)cc2)CC1)c1ccc(C(F)(F)F)cc1 [Compound F3, (E)-N-((1-(3-(4-bromophenyl)acryloyl)piperidin-4-yl)methyl)-4-(trifluoromethyl)benzamide] | –
< 100 nM | (2E)-1-(4-{[4-(tert-butyl)phenyl]sulfonyl}piperazinyl)-3-(4-bromophenyl)prop-2-en-1-one [Compound C150] | –
< 100 nM | (2E)-1-[4-(2-(1,3-dihydroisobenzofuran-5-yl)ethyl)piperazinyl]-3-phenylprop-2-en-1-one [Compound C362] | –
< 100 nM | (2E)-1-[4-(diphenylmethyl)piperazinyl]-3-(4-bromo-2-fluorophenyl)prop-2-en-1-one [Compound C24] | –

IC50 [1] | Molecule | IC50
< 100 nM | (2E)-1-[4-(diphenylmethyl)piperazinyl]-3-(4-bromophenyl)prop-2-en-1-one [Compound C27] | –
< 100 nM | (2E)-1-[4-({[(3,5-difluorophenyl)methyl]amino}methyl)piperidyl]-3-(4-bromophenyl)prop-2-en-1-one [Compound C54] | –
< 100 nM | (2E)-1-{4-[2-(2-fluorophenyl)ethyl]piperazinyl}-3-phenylprop-2-en-1-one [Compound C361] | –
< 100 nM | (2E)-1-{4-[(2,4-difluorophenyl)carbonyl]piperazinyl}-3-(4-bromophenyl)prop-2-en-1-one [Compound C46] | –
< 100 nM | (2E)-1-{4-[(2,5-difluorophenyl)methyl]piperazinyl}-3-phenylprop-2-en-1-one [Compound C350] | –
< 100 nM | (2E)-1-{4-[(2,5-dimethoxyphenyl)sulfonyl]piperazinyl}-3-(4-fluorophenyl)prop-2-en-1-one [Compound C318] | –
100 to 500 nM | (2E)-1-{4-[(2-methylphenyl)methyl]piperazinyl}-3-phenylprop-2-en-1-one [Compound C394] | –
< 100 nM | (2E)-1-{4-[(3,5-dimethylphenyl)methyl]piperazinyl}-3-phenylprop-2-en-1-one [Compound C340] | –
< 100 nM | (2E)-1-{4-[(3-methoxyphenyl)methyl]piperazinyl}-3-phenylprop-2-en-1-one [Compound C379] | –
< 100 nM | (2E)-1-{4-[(3-nitrophenyl)methyl]piperazinyl}-3-phenylprop-2-en-1-one [Compound C387] | –
< 100 nM | (2E)-1-{4-[(4-bromophenyl)sulfonyl]piperazinyl}-3-(4-chloro-2-fluorophenyl)prop-2-en-1-one [Compound C388] | –
< 100 nM | (2E)-3-(4-bromophenyl)-1-(4-heptanoylpiperazinyl)prop-2-en-1-one [Compound C80] | –
< 100 nM | (2E)-3-(4-bromophenyl)-1-[4-({[(4-chlorophenyl)methyl]amino}methyl)piperidyl]prop-2-en-1-one [Compound C74] | –
< 100 nM | (2E)-3-(4-bromophenyl)-1-[4-({[(4-fluorophenyl)methyl]amino}methyl)piperidyl]prop-2-en-1-one [Compound C47] | –
< 100 nM | (2E)-3-(4-bromophenyl)-1-{4-[({[3-fluoro-4-(trifluoromethyl)phenyl]methyl}amino)methyl]piperidyl} prop-2-en-1-one [Compound C121] | –
< 100 nM | (2E)-3-(4-ethoxyphenyl)-1-[4-(phenylsulfonyl)piperazinyl]prop-2-en-1-one [Compound C313] | –
100 to 500 nM | (2E)-3-phenyl-1-[4-(4-pyridylmethyl)piperazinyl]prop-2-en-1-one [Compound C466] | –
100 to 500 nM | (2E)-3-phenyl-1-piperazinylprop-2-en-1-one [Compound C444] | –
100 to 500 nM | N-(4-bromophenyl){4-[(5-chloroindol-2-yl)carbonyl]piperazinyl}carboxamide [Compound C445] | –
100 to 500 nM | benzo[d]furan-2-yl 4-(phenylethyl)piperazinyl ketone [Compound C405] | –
< 100 nM | piperazinyl 5-nitroindol-2-yl ketone [Compound C134] | –
100 to 500 nM | tert-butyl 4-(indol-2-ylcarbonyl)piperazinecarboxylate [Compound C414] | –
100 to 500 nM | {1-[(5-chloroindol-2-yl)carbonyl](4-piperidyl)}(4-chlorophenyl) [Compound C462] | –

Molecule | IC50 [1] | IC50
O=C(c1ccc(Br)cc1)N1CCN(Cc2ccc(Cl)cc2)CC1 [Compound C472, 4-bromophenyl 4-[(4-chlorophenyl)methyl]piperazinyl ketone] | 100 to 500 nM | –
(2E)-3-(4-fluorophenyl)-1-[4-(naphthylsulfonyl)piperazinyl]prop-2-en-1-one [Compound C345] | < 100 nM | –
(2E)-3-phenyl-1-[4-benzylpiperazinyl]prop-2-en-1-one [Compound C337] | < 100 nM | –
